The text below walks through data of patent US7829665B2 (priority 2005, dated 2010).

In assay [1] the target is T1, full-length NS3/NS4A-2 (HCV NS3 protease) (Hepatitis C virus genotype 1a, UniProt P27958).
T1 construct: Recombinant E. coli or Baculovirus full-length NS3 was diluted to 3.33 μM with assay buffer; made in house; host or cells: E. coli or baculovirus (BV) expression system
Briefly: NS3-NS4 protease assay / NS3 inhibition assay (RETS1 substrate, fluorescence kinetic read). The class given is biochemical. The method, boiled down:
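Full-length NS3 from E. coli (2 nM in assay) or baculovirus (3 nM) was precomplexed with excess NS4A-2 peptide, then preincubated 10 min at room temperature with serially diluted compounds starting at 50 microM. Reaction was started with RETS1 substrate at 8 μM before addition and read kinetically for 30 min (ex 335/em 495 nm). Four-parameter IC50s were converted to Ki by Cheng-Prusoff using Km 2.03 μM (E. coli) or 1.74 μM (BV).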

Assay [2] deals with HCV sub-genomic replicon in GS4.3 cells (HuH-7 hepatoma cells). Briefly: Quantitation by ELISA of Neomycin phosphotransferase II (NPTII) in the HCV sub-genomic replicon, GS4.3. The class given is cell-based, hepatitis C virus. The note with it: Hepatitis C virus, Huh-7; GS4.3 cells, 72 h incubation, NPTII ELISA; read-out: Replicon EC50. Summed up: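 HuH-7 GS4.3 cells carrying HCV sub-genomic replicon 1377/NS3-3′, treated 72 h at 37 °C without G418 with 3-fold dilutions from 10 μM to 56 pM (1% DMSO). NPTII in cell lysates measured by direct ELISA with TMB readout at 450 nm. EC50 from 4-parameter fit of percent DMSO-control signal.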
(In general: ELISA stands for enzyme-linked immunosorbent assay.)

The mark [3] stands for this setting: recombinant E. coli or Baculovirus full-length NS3 with NS4A-2, read-out: NS3-NS4 IC50.

Structures are written as SMILES. Like-named read-outs stand apart in the source and are kept apart here.

T1 sequence (P27958 1027-1657): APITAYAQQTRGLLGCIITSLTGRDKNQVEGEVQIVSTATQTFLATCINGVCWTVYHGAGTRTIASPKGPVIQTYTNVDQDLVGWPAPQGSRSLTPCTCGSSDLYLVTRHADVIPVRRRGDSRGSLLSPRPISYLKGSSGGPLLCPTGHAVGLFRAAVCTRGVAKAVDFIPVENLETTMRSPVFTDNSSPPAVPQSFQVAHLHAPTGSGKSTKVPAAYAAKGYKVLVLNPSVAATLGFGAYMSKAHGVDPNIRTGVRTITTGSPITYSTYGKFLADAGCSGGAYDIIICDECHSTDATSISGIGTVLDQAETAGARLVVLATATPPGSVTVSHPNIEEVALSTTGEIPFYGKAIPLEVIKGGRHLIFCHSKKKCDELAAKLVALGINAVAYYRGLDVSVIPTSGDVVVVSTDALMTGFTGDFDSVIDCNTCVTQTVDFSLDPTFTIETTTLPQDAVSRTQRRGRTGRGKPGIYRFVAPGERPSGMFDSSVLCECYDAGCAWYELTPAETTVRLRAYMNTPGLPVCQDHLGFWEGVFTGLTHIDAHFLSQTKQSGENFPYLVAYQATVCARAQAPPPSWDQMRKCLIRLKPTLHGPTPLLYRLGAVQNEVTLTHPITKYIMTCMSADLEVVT

For `O=C1N[C@]2(C(=O)NS(=O)(=O)C3CC3)C[C@H]2/C=C\CCCCC[C@H](Nc2nc(C(F)(F)F)cs2)C(=O)N2C[C@H](OC(=O)N3Cc4cccc(F)c4C3)C[C@@H]12` [Compound 926], in assay [1] (setting [3]), the IC50 – broadly, the concentration at which inhibition is half-maximal – is below 100 nM. For the same compound, the EC50 (as a rule, the concentration at which the effect is half-maximal) in assay [2] is below 100 nM.
For `O=C(N[C@H]1CCCCC/C=C\[C@@H]2C[C@@]2(C(=O)NS(=O)(=O)C2CC2)NC(=O)[C@@H]2CCCN2C1=O)C1CC1` [Compound 317], the IC50 in assay [1] (setting [3]) was below 1000 nM. For the same compound, in assay [2], the EC50 was above 10000 nM.
Turning to `CC(C)(C)CN[C@H]1CCCCC/C=C\[C@@H]2C[C@@]2(C(=O)NS(=O)(=O)C2CC2)NC(=O)[C@@H]2C[C@@H](OC(=O)N3Cc4cccc(F)c4C3)CN2C1=O` [Compound 920], the IC50 in assay [1] (setting [3]) was below 100 nM. For the same compound, the EC50 in assay [2] is below 100 nM.
As to `CC(C)(CO)C(=O)N[C@H]1CCCCC/C=C\[C@@H]2C[C@@]2(C(=O)NS(=O)(=O)C2CC2)NC(=O)[C@@H]2C[C@@H](OC(=O)N3Cc4cccc(F)c4C3)CN2C1=O` [Compound 254], in assay [1] (setting [3]), the IC50 was below 100 nM. Moreover, the EC50 in assay [2] is below 1000 nM.
As for `O=C(N[C@H]1CCCCC/C=C\[C@@H]2C[C@@]2(C(=O)NS(=O)(=O)NCC2CC2)NC(=O)[C@@H]2C[C@@H](OC(=O)N3Cc4cccc(F)c4C3)CN2C1=O)OC1CCCC1` [Compound 205], the IC50 in assay [1] (setting [3]) is below 100 nM. Further, the EC50 in assay [2] was below 1000 nM.
The like results for `Cc1ccccc1S(=O)(=O)NC(=O)[C@@]12C[C@H]1/C=C\CCCCC[C@H](NC(=O)OC(C)(C)C)C(=O)N1C[C@H](OC(=O)N3Cc4cccc(F)c4C3)C[C@H]1C(=O)N2` [Compound 157] were, in that order, below 100 nM and below 100 nM.
For the compound `O=C(N[C@H]1CCCCC/C=C\[C@@H]2C[C@@]2(C(=O)NS(=O)(=O)C2CC2)NC(=O)[C@@H]2C[C@@H](OC(=O)N3Cc4ccncc4C3)CN2C1=O)OC1CCCC1` [Compound 155], in assay [1] (setting [3]), the IC50 is below 100 nM. In assay [2], the EC50 is below 1000 nM.
Regarding `NC(=S)N[C@H]1CCCCC/C=C\[C@@H]2C[C@@]2(C(=O)NS(=O)(=O)C2CC2)NC(=O)[C@@H]2C[C@@H](OC(=O)N3Cc4cccc(F)c4C3)CN2C1=O` [Compound 923], the IC50 in assay [1] (setting [3]) was below 100 nM. For the same compound, the EC50 in assay [2] is below 1000 nM.
The like results for `O=C1N[C@]2(C(=O)NCC3CC3)C[C@H]2/C=C\CCCCC[C@H](Nc2c(N3CCC3)c(=O)c2=O)C(=O)N2C[C@H](OC(=O)N3Cc4cccc(F)c4C3)C[C@@H]12` [Compound 647] were, in that order, below 100 nM and below 10000 nM.
For the compound `CN(C)[C@H]1CCCCC/C=C\[C@@H]2C[C@@]2(C(=O)NS(=O)(=O)C2CC2)NC(=O)[C@@H]2C[C@@H](OC(=O)N3Cc4cccc(F)c4C3)CN2C1=O` [Compound 908], in assay [1] (setting [3]), the IC50 is below 1000 nM. The EC50 in assay [2] is below 10000 nM.
For `O=C(N[C@H]1CCCCC/C=C\[C@@H]2C[C@@]2(C(=O)NS(=O)(=O)C2CC2)NC(=O)[C@H]2Cc3cc(Oc4cccc(Cl)c4)ccc3CN2C1=O)OC1CCCC1` [Compound 2005, Cyclopentyl (1aS,9S,17aR,19aR,Z)-15-(3-chlorophenoxy)-19a-(cyclopropylsulfonylcarbamoyl)-10,18-dioxo-1a,4,5,6,7,8,9,10,12,17,17a,18,19,19a-tetradecahydro-1H-11,14-diaza-bicyclo[13.1.0]hexadeca-1(15), 2-dieno[11,12-b]isoquinolin-9-ylcarbamate], the half-inhibitory concentration (IC50) in assay [1] (setting [3]) was below 100 nM. Further, the EC50 in assay [2] is below 1000 nM.
In the case of `CC(C)(C)OC(=O)N[C@H]1CCCCC/C=C\[C@@H]2C[C@@]2(C(=O)NCCN2CCCCC2)NC(=O)[C@@H]2C[C@@H](OC(=O)N3Cc4cccc(F)c4C3)CN2C1=O` [Compound 604], the IC50 in assay [1] (setting [3]) was above 10000 nM. Further, the EC50 in assay [2] is above 10000 nM.
Take `CC(C)(C)OC(=O)N[C@H]1CCCCC/C=C\[C@@H]2C[C@@]2(C(=O)NS(=O)(=O)C2CC2)NC(=O)[C@@H]2C[C@@H](OC(=O)N3CCc4c(F)ccc(Cl)c4C3)CN2C1=O` [Compound 259]: the IC50 in assay [1] (setting [3]) was below 100 nM. The EC50 in assay [2] was below 100 nM.
In the case of `O=C(CCC(F)(F)F)N[C@H]1CCCCC/C=C\[C@@H]2C[C@@]2(C(=O)O)NC(=O)[C@@H]2C[C@@H](OC(=O)N3Cc4cccc(Cl)c4C3)CN2C1=O` [Compound 142], in assay [1] (setting [3]), the IC50 is below 100 nM. Further, in assay [2], the EC50 was below 10000 nM.
Take `CC(C)(C)OC(=O)N[C@H]1COCCC/C=C\[C@@H]2C[C@@]2(C(=O)NS(=O)(=O)C2CC2)NC(=O)[C@@H]2C[C@@H](OC(=O)N3Cc4cccc(F)c4C3)CN2C1=O` [Compound 1020, (2R,6S,13aS,14aR,16aS,Z)-6-(tert-butoxycarbonylamino)-14a-(cyclopropylsulfonylcarbamoyl)-5,16-dioxo-2,3,5,6,7,9,10,11,13a,14,14a,15,16,16a-tetradecahydro-1H-cyclopropa(i)pyrrolo[1,2-e][1,5,8]oxadiazacyclopentadecin-2-yl 4-fluoroisoindoline-2-carboxylate]: the IC50 in assay [1] is below 100 nM. For the same compound, the EC50 in assay [2] is below 100 nM.
For `Cc1cccc(C)c1CN[C@H]1CCCCC/C=C\[C@@H]2C[C@@]2(C(=O)NS(=O)(=O)C2CC2)NC(=O)[C@@H]2C[C@@H](OC(=O)N3Cc4cccc(F)c4C3)CN2C1=O` [Compound 918], the IC50 in assay [1] (setting [3]) was below 100 nM. Moreover, the EC50 in assay [2] is below 1000 nM.
As for `N[C@H]1CCC(F)(F)CC/C=C\[C@@H]2C[C@@]2(C(=O)NS(=O)(=O)C2CC2)NC(=O)[C@@H]2C[C@@H](OC(=O)N3Cc4ccccc4C3)CN2C1=O` [Compound 1011], the IC50 in assay [1] (setting [3]) is below 100 nM. For the same compound, the concentration giving a half-maximal response (EC50) in assay [2] was below 1000 nM.
For `CC(C)(C)OC(=O)N[C@H]1CCCCC/C=C\[C@@H]2C[C@@]2(C(=O)NC#N)NC(=O)C2C[C@@H](OC(=O)N3Cc4cccc(Cl)c4C3)CN2C1=O` (stereo partly drawn) [Compound 641] the same measures were below 100 nM and below 10000 nM.
The like results for `O=C(N[C@H]1CCCCC/C=C\[C@@H]2C[C@@]2(C(=O)O)NC(=O)C2C[C@@H](OC(=O)N3Cc4cccc(F)c4C3)CN2C1=O)c1cnccn1` (stereo partly drawn) [Compound 181] were, in that order, below 1000 nM and below 10000 nM.
For `CC(C)(C)OC(=O)N[C@H]1CCCC(F)(F)C/C=C\[C@@H]2C[C@@]2(C(=O)O)NC(=O)[C@@H]2C[C@@H](OC(=O)N3Cc4cccc(F)c4C3)CN2C1=O` [Compound 1006, (2R,6S,13aS,14aR,16aS,Z)-6-(tert-butoxycarbonylamino)-9,9-difluoro-2-(4-fluoroisoindoline-2-carbonyloxy)-5,16-dioxo-1,2,3,5,6,7,8,9,10,11,13a,14,14a,15,16,16a-hexadecahydrocyclopropa(e)prrolo[1,2-a][1,4]diazacyclopentadecine-14a-carboxylic acid] the same measures were below 100 nM and below 10000 nM.
As to `CC(C)(C)OC(=O)N[C@H]1CCCCC/C=C\[C@@H]2C[C@@]2(C(=O)Nc2nccs2)NC(=O)[C@@H]2C[C@@H](OC(=O)N3Cc4cccc(F)c4C3)CN2C1=O` [Compound 614], the IC50 in assay [1] (setting [3]) is below 1000 nM. In assay [2], the EC50 was below 1000 nM.
For the compound `O=C(N[C@H]1CCCCC/C=C\[C@@H]2C[C@@]2(C(=O)NS(=O)(=O)C2CCCC2)NC(=O)[C@@H]2C[C@@H](OC(=O)N3CCc4ccccc4C3)CN2C1=O)OC1CCCC1` [Compound 186], the IC50 in assay [1] (setting [3]) was below 100 nM. Besides, the EC50 in assay [2] is below 1000 nM.
For `CC(C)(C)OC(=O)N[C@H]1CCCCC/C=C\[C@@H]2C[C@@]2(C(=O)NS(=O)(=O)C2CC2)NC(=O)[C@@H]2C[C@@H](OC(=O)N3CCc4c(Cl)ccc(Cl)c4C3)CN2C1=O` [Compound 256] the same measures were below 100 nM and below 100 nM.
As for `CC(C)(C)OC(=O)N[C@H]1CCN(CC(F)(F)F)CC/C=C\[C@@H]2C[C@@]2(C(=O)NS(=O)(=O)C2CC2)NC(=O)[C@@H]2C[C@@H](OC(=O)N3Cc4cccc(F)c4C3)CN2C1=O` [Compound 1032], the IC50 in assay [1] (setting [3]) is below 100 nM. Besides, the EC50 in assay [2] is below 100 nM.
In the case of `CC(C)(C)OC(=O)N[C@H]1CCCCC/C=C\[C@@H]2C[C@@]2(C(=O)O)NC(=O)[C@@H]2C[C@@H](OC(=O)N3Cc4ccc(F)cc4C3)CN2C1=O` [Compound 109], in assay [1] (setting [3]), the IC50 was below 100 nM. Moreover, the EC50 in assay [2] was below 10000 nM.
For `O=C(N[C@H]1CCCCC/C=C\[C@@H]2C[C@@]2(C(=O)NS(=O)(=O)c2cccs2)NC(=O)[C@@H]2C[C@@H](OC(=O)N3CCc4ccccc4C3)CN2C1=O)OC1CCCC1` [Compound 190] the same measures were below 100 nM and below 100 nM.
Consider `[2H]C([2H])([2H])N(C([2H])([2H])[2H])S(=O)(=O)NC(=O)[C@@]12C[C@H]1/C=C\CCCCC[C@H](NC(=O)OC(C)(C)C)C(=O)N1C[C@H](OC(=O)N3Cc4ccccc4C3)C[C@H]1C(=O)N2` [Compound 204], for which the IC50 in assay [1] (setting [3]) was below 100 nM. The 50% effective concentration (EC50) in assay [2] was below 100 nM.
As to `COCC1(S(=O)(=O)NC(=O)[C@@]23C[C@H]2/C=C\CCCCC[C@H](NC(=O)OC(C)(C)C)C(=O)N2C[C@H](OC(=O)N4Cc5ccccc5C4)C[C@H]2C(=O)N3)CC1` [Compound 103], the IC50 in assay [1] (setting [3]) is below 100 nM. The EC50 in assay [2] is below 100 nM.
For the compound `CC(C)(C)OC(=O)N[C@H]1CCCCC/C=C\[C@@H]2C[C@@]2(C(=O)Nc2ccccc2)NC(=O)[C@@H]2C[C@@H](OC(=O)N3Cc4ccccc4C3)CN2C1=O` [Compound 601], in assay [1] (setting [3]), the IC50 was below 100 nM. In assay [2], the EC50 was below 1000 nM.
For the compound `CC(C)(C)OC(=O)N[C@H]1CCCCC/C=C\[C@@H]2C[C@@]2(C(=O)NS(=O)(=O)c2cnccc2Cl)NC(=O)[C@@H]2C[C@@H](OC(=O)N3Cc4ccccc4C3)CN2C1=O` [Compound 108], the IC50 in assay [1] (setting [3]) was below 100 nM. Besides, the EC50 in assay [2] is below 10000 nM.
